Data as given in PubChem BioAssay AID190 (DTP/NCI, 2004).
“And” between values parts separate entries of the source, which are not always exact repeats. Identical values can stand only once. Toxic doses and inconclusive results are not listed. How the source made its calls: active means survival T/C of 150% or more; inactive means T/C below 125% in these data.

Test system: AKR/Lw mice, AKR lymphoma ip, median survival T/C
Test: NCI In Vivo Anticancer Drug Screen. Data for tumor model Lymphoma AKR (Transplanted) (intraperitoneal) in AKR/Lw mice
Conditions: endpoint: median survival time, higher = longer survival
Experimental: The antitumor activity of compounds was measured in mice bearing transplantable tumors. Survival or tumor size were measured and the results are expressed as the measurement made in the treated group (T) divided by the measurement made in the vehicle treated control group (C). The tumor model used in this assay is Lymphoma AKR (Transplanted) (intraperitoneal) in AKR/Lw mice

[1] = dose: 100.0 mg/kg/injection, schedule: Q01DX001 (ip), vehicle: saline
[2] = dose: 200.0 mg/kg/injection, schedule: Q01DX001 (ip), vehicle: saline
[3] = dose: 400.0 mg/kg/injection, schedule: Q01DX001 (ip), vehicle: saline
[4] = dose: 100.0 mg/kg/injection, schedule: Q01DX001 (ip), vehicle: Klucel (hydroxypropylcellulose) (HPC)
[5] = dose: 100.0 mg/kg/injection, schedule: Q04DX003 (ip), vehicle: Klucel (hydroxypropylcellulose) (HPC)
[6] = dose: 200.0 mg/kg/injection, schedule: Q01DX001 (ip), vehicle: Klucel (hydroxypropylcellulose) (HPC)
[7] = dose: 200.0 mg/kg/injection, schedule: Q04DX003 (ip), vehicle: Klucel (hydroxypropylcellulose) (HPC)
[8] = dose: 400.0 mg/kg/injection, schedule: Q01DX001 (ip), vehicle: Klucel (hydroxypropylcellulose) (HPC)

Measured: T/C

CC(C)(CNc1ccc(C(=O)O)cc1)[N+](=O)[O-]
inactive: [1] 102 % of control | [2] 95 % of control | [3] 86 % of control

O=[N+]([O-])O.[Ga]
inactive: dose: 1.25 mg/kg/injection, schedule: Q01DX001 (ip), vehicle: saline 102 % of control | dose: 2.5 mg/kg/injection, schedule: Q01DX001 (ip), vehicle: saline 102 % of control | dose: 2.5 mg/kg/injection, schedule: Q01DX009 (ip), vehicle: saline 114 % of control | dose: 2.5 mg/kg/injection, schedule: Q04DX003 (ip), vehicle: saline 87 % of control | dose: 3.1 mg/kg/injection, schedule: Q01DX001 (ip), vehicle: saline 105 % of control | dose: 5.0 mg/kg/injection, schedule: Q01DX001 (ip), vehicle: saline 102 % of control | dose: 5.0 mg/kg/injection, schedule: Q01DX009 (ip), vehicle: saline 91 % of control and 100 % of control | dose: 5.0 mg/kg/injection, schedule: Q04DX003 (ip), vehicle: saline 93 % of control and 108 % of control | dose: 6.2 mg/kg/injection, schedule: Q01DX001 (ip), vehicle: saline 94 % of control | dose: 6.2 mg/kg/injection, schedule: Q04DX003 (ip), vehicle: saline 102 % of control | dose: 7.5 mg/kg/injection, schedule: Q01DX009 (ip), vehicle: saline 86 % of control | dose: 8.0 mg/kg/injection, schedule: Q01DX009 (ip), vehicle: saline 100 % of control | dose: 10.0 mg/kg/injection, schedule: Q01DX001 (ip), vehicle: saline 92 % of control and 105 % of control | dose: 10.0 mg/kg/injection, schedule: Q01DX009 (ip), vehicle: saline 97 % of control and 111 % of control | dose: 10.0 mg/kg/injection, schedule: Q04DX003 (ip), vehicle: saline 87 % of control and 108 % of control | dose: 12.5 mg/kg/injection, schedule: Q01DX009 (ip), vehicle: saline 105 % of control | dose: 12.5 mg/kg/injection, schedule: Q04DX003 (ip), vehicle: saline 102 % of control | dose: 20.0 mg/kg/injection, schedule: Q01DX001 (ip), vehicle: saline 105 % of control | dose: 20.0 mg/kg/injection, schedule: Q01DX009 (ip), vehicle: saline 94 % of control and 102 % of control | dose: 20.0 mg/kg/injection, schedule: Q04DX003 (ip), vehicle: saline 93 % of control and 106 % of control | dose: 25.0 mg/kg/injection, schedule: Q01DX009 (ip), vehicle: saline 88 % of control and 105 % of control | dose: 25.0 mg/kg/injection, schedule: Q04DX003 (ip), vehicle: saline 94 % of control | dose: 40.0 mg/kg/injection, schedule: Q01DX001 (ip), vehicle: saline 105 % of control | dose: 50.0 mg/kg/injection, schedule: Q01DX009 (ip), vehicle: saline 105 % of control and 110 % of control and 113 % of control | dose: 64.0 mg/kg/injection, schedule: Q04DX003 (ip), vehicle: water 116 % of control | dose: 500.0 mg/kg/injection, schedule: Q01DX001 (ip), vehicle: saline 88 % of control and 95 % of control

C/C(=C\Cl)CN1C(=O)c2ccccc2C1=O
inactive: [1] 93 % of control | [2] 102 % of control | [3] 93 % of control

CC(C)(CCCl)NCc1ccccc1
inactive: [1] 102 % of control

CO[C@H]1/C=C/O[C@@]2(C)Oc3c(C)c(O)c4c(O)c(c(/C=N/N5C(C)CN(Cc6ccccc6)CC5C)c(O)c4c3C2=O)NC(=O)/C(C)=C\C=C\[C@H](C)[C@H](O)[C@@H](C)[C@@H](O)[C@@H](C)[C@H](OC(C)=O)[C@@H]1C (stereo partly specified)
inactive: dose: 12.5 mg/kg/injection, schedule: Q01DX008 (ip), vehicle: Klucel (hydroxypropylcellulose) (HPC) 99 % of control | dose: 25.0 mg/kg/injection, schedule: Q01DX008 (ip), vehicle: Klucel (hydroxypropylcellulose) (HPC) 104 % of control | dose: 50.0 mg/kg/injection, schedule: Q01DX008 (ip), vehicle: Klucel (hydroxypropylcellulose) (HPC) 91 % of control | dose: 100.0 mg/kg/injection, schedule: Q01DX008 (ip), vehicle: Klucel (hydroxypropylcellulose) (HPC) 103 % of control | dose: 200.0 mg/kg/injection, schedule: Q01DX008 (ip), vehicle: Klucel (hydroxypropylcellulose) (HPC) 96 % of control | dose: 400.0 mg/kg/injection, schedule: Q01DX008 (ip), vehicle: Klucel (hydroxypropylcellulose) (HPC) 95 % of control

ClCCCNCc1ccccc1
inactive: [1] 94 % of control

CN(CCOc1ccccc1O)CCOc1ccccc1O
inactive: [4] 105 % of control | [5] 100 % of control | [6] 107 % of control | [7] 92 % of control | [8] 105 % of control

CCOC(=O)c1ccc(NCC(C)(C)[N+](=O)[O-])cc1
inactive: [1] 88 % of control | [3] 88 % of control

c1ccc(CC(Cc2ccccc2)CN2CCCC2)cc1
inactive: [1] 94 % of control | [2] 88 % of control | [3] 123 % of control

Cc1cnc2c(N)[nH]nc2n1
inactive: dose: 25.0 mg/kg/injection, schedule: Q01DX001 (ip), vehicle: Klucel (hydroxypropylcellulose) (HPC) 100 % of control | dose: 50.0 mg/kg/injection, schedule: Q01DX001 (ip), vehicle: Klucel (hydroxypropylcellulose) (HPC) 97 % of control | [4] 106 % of control

COC(=O)Cc1ccc([N+](=O)[O-])cc1[N+](=O)[O-]
inactive: [1] 94 % of control | [2] 94 % of control | [3] 97 % of control

CC(=O)NC1CC2c3ccccc3C1([N+](=O)[O-])c1ccccc12 (stereo unspecified)
inactive: [4] 104 % of control | [6] 97 % of control | [8] 102 % of control

NC(Cc1ccc([N+](=O)[O-])cc1)C(=O)O (stereo unspecified)
inactive: [1] 94 % of control | [2] 96 % of control

O=C(NC(CSC(c1ccccc1)c1ccccc1)C(=O)O)OCc1ccccc1 (stereo unspecified)
inactive: [4] 95 % of control | [6] 93 % of control | [8] 95 % of control

OCC1C(CO)C2(Cl)C(Cl)=C(Cl)C1(Cl)C2(Cl)Cl (stereo unspecified)
inactive: [4] 100 % of control | [6] 93 % of control | [8] 91 % of control

O=C1c2ccccc2-c2ncccc21
inactive: [4] 100 % of control | [6] 120 % of control | [8] 93 % of control

Nc1ccc(OCc2ccc(S(=O)(=O)F)c(Cl)c2)c(Cl)c1
inactive: dose: 50.0 mg/kg/injection, schedule: Q04DX003 (ip), vehicle: Klucel (hydroxypropylcellulose) (HPC) 88 % of control | [4] 87 % of control | [5] 86 % of control | dose: 150.0 mg/kg/injection, schedule: Q01DX009 (ip), vehicle: Klucel (hydroxypropylcellulose) (HPC) 112 % of control | [6] 90 % of control | [7] 111 % of control
